Measurements from PMC4613240, “A Series of New Ligustrazine-Triterpenes Derivatives as Anti-Tumor Agents: Design, Synthesis, and Biological Evaluation” (International Journal of Molecular Sciences, 2015).

Columns and labels:
[1] = test system: HepG2 cells; test: Morphological observation using DAPI staining; assay type: cell-based, human; settings: HepG2, 2, 4, 8 μM for 72 h
Procedure: DAPI staining was used to evaluate apoptosis associated morphological changes in this assay. HepG2 cells were seeded in the six well plates at a density of 4 × 10^3 cells/well and incubated overnight. Then the cells were incubated in the presence of 4a at various concentrations (2, 4, 8 μΜ) at 37 °C and 5% CO2 for 72 h. Cells were then washed with PBS, fixed with 4% paraformaldehyde followed by 70% ethanol. Finally, fixed cells were stained with DAPI (DAPI, Molecular Probes/Invitrogen Life Technologies, Carlsbad, CA, USA) at the concentration of 1 mg/mL and incubated for 1 min in dark. The cell morphological changes were observed by fluorescent microscopy and images were captured by digital camera.

[2] = test system: HepG2 cells; test: Morphological observation using AO/EB double staining; assay type: cell-based, human; settings: HepG2, 2, 4, 8 μM for 72 h
Procedure: To further characterize 4a-induced HepG2 cell apoptosis, the changes in cell morphology of the treated cells were determined using AO/EB double staining. AO is a vital dye that stains both live and dead cells as it can penetrate normal cell membrane. EB stains only cells that have lost their membrane integrity. Cells that stained green indicate viable cells, yellow indicate early apoptosis and orange/red indicate late apoptosis.
Apoptotic study was performed using AO/EB double staining. HepG2 cells were seeded in six well plates at a density of 1 × 10^4 cells/well and allowed to grow for 24 h. Then the cells were incubated in the presence of 4a at various concentrations (2, 4, 8 μΜ) at 37 °C and 5% CO2 for 72 h. After the treatment period, cells were collected and centrifuged; then the cells were suspended in phosphate-buffer saline (PBS) and centrifuged again. The liquid was removed; the cells were suspended in PBS. Then AO/EB (AO/EB, Sigma, USA) solution (1:1 v/v) was added to the cell suspension in a final concentration of 100 μg/mL. Cell morphologies were assessed under a fluorescent microscope.

[3] = test system: Bel-7402 (human hepatocellular carcinoma); test: MTT cytotoxicity assay, Bel-7402; assay type: cell-based; settings: maximal tested concentration 20.0 μM
Procedure: The cytotoxicity of ligustrazine-triterpenes derivatives was evaluated on five tumor cell lines (Bel-7402, HepG2, HT-29, Hela, and MCF-7) using the standard MTT assay. In the study, the antineoplastic drug cisplatin (DDP) was selected as the positive control. The MDCK cell line was used to test the toxicity of the ligustrazine-triterpenes derivatives and DDP.
The cell lines Bel-7402 (human hepatocellular carcinoma), HepG2 (human hepatocellular carcinoma), HT-29 (human colon carcinoma), Hela (human cervical cancer), MCF-7 (human breast cancer) were included in this study. All these cell lines were provided by the Chinese Academy of Medical Sciences & Peking Union Medical College. Cultures were maintained as monolayers in RPMI 1640 supplemented with 10% (v/v) heat inactivated fetal bovine serum and 1% (v/v) enicillin/streptomycin (Thermo Technologies, New York, NY, USA) at 37 °C in a humidified atmosphere with 5% CO2. The ligustrazine derivatives under study were dissolved in DMSO (Sigma, St. Louis, MO, USA) and added at required concentrations to the cell culture. Cells incubated without the preparations served as the control.
The cytotoxicity of the compounds was evaluated on five cancer cell lines (Bel-7402, HepG2, HT-29, Hela, MCF-7) by the standard MTT assay. In short, exponentially growing cells were seeded into 96-well plates at a density 10^4 cells/mL. The plates were incubated at 37 °C in a humidified 5% CO2 atmosphere. Cells were allowed to adhere to the surface for 24 h and then treated with serial dilutions of the compounds for 72 h. Later, aliquots of [3-(4,5-dimethylthiazol-2-yl)-2,5-diphenyltetrazolium bromide] (MTT) solution (20 μL, 5 mg/mL) were added to each well and the incubation was continued for an additional 4 h. Then the supernatant medium was thrown away. The dark blue formazan crystals formed within the healthy cells were solubilized with DMSO (150 μL) and the absorbance was measured in a plate reader (BIORAD 550 spectrophotometer, Bio-rad Life Science Development Ltd., Beijing, China) at 490 nm. Wells containing no drugs were used as control group. The IC50 values were defined as the concentration of compounds that produced a 50% reduction of surviving cells and calculated using Logit-method. Tumor cell growth inhibitory rate was calculated in the following Equation (1): % inhibition = (1 − Sample group OD/Control group OD) × 100% (1)

C=C(C)[C@@H]1CC[C@]2(C(=O)OCc3nc(C)c(C)nc3C)CC[C@]3(C)C(CCC4[C@@]5(C)CC[C@H](O)C(C)(C)C5CC[C@]43C)C12 (stereo partly drawn) [Compound 4a, 3β-Hydroxy-lup-20(29)-ene-28-oic acid-3,5,6-trimethylpyrazin-2-methyl ester]
cell morphology after DAPI staining [1]: displayed morphological features of apoptosis
cell morphology after AO/EB double staining [2]: increased number of orange- and red-stained cells in a dose dependent manner
IC50 ([3]; 72 h): 4.19 µM
IC50 ([3]; Homo sapiens, Bel-7402, 72 h): < 5.23 µM
